Where a name gives a salt, the structure may show the parent alone.
Columns and labels:
NaV1.6 [1] = molecular target: T1, NaV1.6 (Homo sapiens (Human), UniProt Q9UQD0); experiment: Sodium Influx Assay (Flux), NaV1.6; format: cell-based; conditions: Trex HEK293 cells, ANG2 dye, inactivated state;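 also: Tetracycline-induced cells, compounds applied for one hour at room temperature with modulators holding channels open, IC50 from percent inhibition of sodium influx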
NaV1.6 [2] = molecular target: T1, NaV1.6; experiment: Electrophysiological Assay (EP), patch voltage clamp, NaV1.6; format: cell-based; conditions: HEK-293 cells, whole-cell patch clamp;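 also: sodium current recorded at ambient temperature, channels held inactivated then briefly repolarized to −150 mV for 20 ms before a test pulse, control currents in 0.5% DMSO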
NaV1.5 [3] = molecular target: T2, NaV1.5 (Homo sapiens (Human), UniProt Q14524); experiment: Sodium Influx Assay (Flux), NaV1.5
T2 sequence (Q14524 other isoform, or with tags, fused parts or gaps): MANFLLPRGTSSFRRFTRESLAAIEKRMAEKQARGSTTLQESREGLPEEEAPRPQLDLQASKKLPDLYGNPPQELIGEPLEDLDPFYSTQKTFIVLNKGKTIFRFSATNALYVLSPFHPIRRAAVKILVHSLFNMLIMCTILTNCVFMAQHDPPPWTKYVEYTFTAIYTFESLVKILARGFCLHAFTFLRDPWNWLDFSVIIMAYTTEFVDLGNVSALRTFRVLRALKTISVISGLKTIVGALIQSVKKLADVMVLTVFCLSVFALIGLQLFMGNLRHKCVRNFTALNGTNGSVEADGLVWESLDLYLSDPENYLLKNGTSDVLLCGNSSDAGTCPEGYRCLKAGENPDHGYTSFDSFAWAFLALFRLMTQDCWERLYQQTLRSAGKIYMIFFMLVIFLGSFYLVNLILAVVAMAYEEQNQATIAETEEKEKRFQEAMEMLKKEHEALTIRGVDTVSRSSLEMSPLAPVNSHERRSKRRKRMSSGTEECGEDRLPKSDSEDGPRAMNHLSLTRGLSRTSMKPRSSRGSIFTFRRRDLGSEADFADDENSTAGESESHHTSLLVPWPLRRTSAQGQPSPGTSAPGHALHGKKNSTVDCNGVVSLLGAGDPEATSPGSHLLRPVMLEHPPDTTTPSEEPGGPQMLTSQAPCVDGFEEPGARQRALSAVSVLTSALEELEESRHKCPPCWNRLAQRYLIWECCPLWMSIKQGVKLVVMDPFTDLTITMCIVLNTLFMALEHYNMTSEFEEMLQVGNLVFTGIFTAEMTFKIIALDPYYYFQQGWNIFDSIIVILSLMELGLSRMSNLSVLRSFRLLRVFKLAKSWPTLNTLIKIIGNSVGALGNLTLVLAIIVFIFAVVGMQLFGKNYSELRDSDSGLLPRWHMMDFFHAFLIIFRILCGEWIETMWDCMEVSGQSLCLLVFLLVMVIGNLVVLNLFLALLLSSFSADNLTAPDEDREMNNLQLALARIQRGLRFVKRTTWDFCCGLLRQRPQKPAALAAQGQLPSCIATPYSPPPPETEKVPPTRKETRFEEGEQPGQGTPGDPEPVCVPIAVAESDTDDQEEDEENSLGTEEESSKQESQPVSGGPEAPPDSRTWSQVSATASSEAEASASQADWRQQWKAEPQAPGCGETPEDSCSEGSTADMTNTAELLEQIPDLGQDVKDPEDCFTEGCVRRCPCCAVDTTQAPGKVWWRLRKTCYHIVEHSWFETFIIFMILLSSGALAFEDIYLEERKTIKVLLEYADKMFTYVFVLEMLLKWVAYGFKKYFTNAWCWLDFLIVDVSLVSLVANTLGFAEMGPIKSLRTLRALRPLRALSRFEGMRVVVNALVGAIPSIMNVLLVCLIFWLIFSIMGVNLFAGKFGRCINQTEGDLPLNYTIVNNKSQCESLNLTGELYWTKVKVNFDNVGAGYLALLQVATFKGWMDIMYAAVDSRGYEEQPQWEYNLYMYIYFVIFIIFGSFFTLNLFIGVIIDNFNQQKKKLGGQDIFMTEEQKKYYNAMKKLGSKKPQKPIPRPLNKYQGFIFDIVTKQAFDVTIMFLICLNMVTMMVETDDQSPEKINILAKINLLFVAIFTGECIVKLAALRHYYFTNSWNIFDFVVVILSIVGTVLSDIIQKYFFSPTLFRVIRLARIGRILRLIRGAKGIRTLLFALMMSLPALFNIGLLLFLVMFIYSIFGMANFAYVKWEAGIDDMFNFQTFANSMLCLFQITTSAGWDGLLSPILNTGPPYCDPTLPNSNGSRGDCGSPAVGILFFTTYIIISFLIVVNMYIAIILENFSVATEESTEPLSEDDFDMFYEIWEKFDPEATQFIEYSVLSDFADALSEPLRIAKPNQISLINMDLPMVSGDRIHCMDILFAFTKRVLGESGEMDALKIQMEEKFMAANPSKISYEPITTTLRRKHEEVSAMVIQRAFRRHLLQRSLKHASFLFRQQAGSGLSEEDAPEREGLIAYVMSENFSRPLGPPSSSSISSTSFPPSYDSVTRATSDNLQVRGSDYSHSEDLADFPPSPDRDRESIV

NaV1.5 [4] = molecular target: T2, NaV1.5; experiment: Electrophysiological Assay (EP), patch voltage clamp, NaV1.5; format: cell-based; conditions: HEK-293 cells, whole-cell patch clamp
NaV1.1 [5] = molecular target: T3, NaV1.1 (Homo sapiens (Human), UniProt P35498); experiment: Sodium Influx Assay (Flux), NaV1.1; format: cell-based; conditions: Trex HEK293 cells, ANG2 dye, inactivated state;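 also: channels co-expressed with human β1 subunit and held open by modulators, cells exposed to compounds for one hour at room temperature, IC50 from percent inhibition of influx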
NaV1.1 [6] = molecular target: T3, NaV1.1; experiment: Electrophysiological Assay (EP), patch voltage clamp, NaV1.1; format: cell-based; conditions: HEK-293 cells, whole-cell patch clamp;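 also: sodium current block measured at ambient temperature, holding at fully inactivating potential, 20 ms repolarization to −150 mV before test pulse, versus 0.5% DMSO control currents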
[7] = read-out: Flux NaV1.5 IC50, Trex HEK293 cells, ANG2 dye, inactivated state

T1 sequence (Q9UQD0 whole entry): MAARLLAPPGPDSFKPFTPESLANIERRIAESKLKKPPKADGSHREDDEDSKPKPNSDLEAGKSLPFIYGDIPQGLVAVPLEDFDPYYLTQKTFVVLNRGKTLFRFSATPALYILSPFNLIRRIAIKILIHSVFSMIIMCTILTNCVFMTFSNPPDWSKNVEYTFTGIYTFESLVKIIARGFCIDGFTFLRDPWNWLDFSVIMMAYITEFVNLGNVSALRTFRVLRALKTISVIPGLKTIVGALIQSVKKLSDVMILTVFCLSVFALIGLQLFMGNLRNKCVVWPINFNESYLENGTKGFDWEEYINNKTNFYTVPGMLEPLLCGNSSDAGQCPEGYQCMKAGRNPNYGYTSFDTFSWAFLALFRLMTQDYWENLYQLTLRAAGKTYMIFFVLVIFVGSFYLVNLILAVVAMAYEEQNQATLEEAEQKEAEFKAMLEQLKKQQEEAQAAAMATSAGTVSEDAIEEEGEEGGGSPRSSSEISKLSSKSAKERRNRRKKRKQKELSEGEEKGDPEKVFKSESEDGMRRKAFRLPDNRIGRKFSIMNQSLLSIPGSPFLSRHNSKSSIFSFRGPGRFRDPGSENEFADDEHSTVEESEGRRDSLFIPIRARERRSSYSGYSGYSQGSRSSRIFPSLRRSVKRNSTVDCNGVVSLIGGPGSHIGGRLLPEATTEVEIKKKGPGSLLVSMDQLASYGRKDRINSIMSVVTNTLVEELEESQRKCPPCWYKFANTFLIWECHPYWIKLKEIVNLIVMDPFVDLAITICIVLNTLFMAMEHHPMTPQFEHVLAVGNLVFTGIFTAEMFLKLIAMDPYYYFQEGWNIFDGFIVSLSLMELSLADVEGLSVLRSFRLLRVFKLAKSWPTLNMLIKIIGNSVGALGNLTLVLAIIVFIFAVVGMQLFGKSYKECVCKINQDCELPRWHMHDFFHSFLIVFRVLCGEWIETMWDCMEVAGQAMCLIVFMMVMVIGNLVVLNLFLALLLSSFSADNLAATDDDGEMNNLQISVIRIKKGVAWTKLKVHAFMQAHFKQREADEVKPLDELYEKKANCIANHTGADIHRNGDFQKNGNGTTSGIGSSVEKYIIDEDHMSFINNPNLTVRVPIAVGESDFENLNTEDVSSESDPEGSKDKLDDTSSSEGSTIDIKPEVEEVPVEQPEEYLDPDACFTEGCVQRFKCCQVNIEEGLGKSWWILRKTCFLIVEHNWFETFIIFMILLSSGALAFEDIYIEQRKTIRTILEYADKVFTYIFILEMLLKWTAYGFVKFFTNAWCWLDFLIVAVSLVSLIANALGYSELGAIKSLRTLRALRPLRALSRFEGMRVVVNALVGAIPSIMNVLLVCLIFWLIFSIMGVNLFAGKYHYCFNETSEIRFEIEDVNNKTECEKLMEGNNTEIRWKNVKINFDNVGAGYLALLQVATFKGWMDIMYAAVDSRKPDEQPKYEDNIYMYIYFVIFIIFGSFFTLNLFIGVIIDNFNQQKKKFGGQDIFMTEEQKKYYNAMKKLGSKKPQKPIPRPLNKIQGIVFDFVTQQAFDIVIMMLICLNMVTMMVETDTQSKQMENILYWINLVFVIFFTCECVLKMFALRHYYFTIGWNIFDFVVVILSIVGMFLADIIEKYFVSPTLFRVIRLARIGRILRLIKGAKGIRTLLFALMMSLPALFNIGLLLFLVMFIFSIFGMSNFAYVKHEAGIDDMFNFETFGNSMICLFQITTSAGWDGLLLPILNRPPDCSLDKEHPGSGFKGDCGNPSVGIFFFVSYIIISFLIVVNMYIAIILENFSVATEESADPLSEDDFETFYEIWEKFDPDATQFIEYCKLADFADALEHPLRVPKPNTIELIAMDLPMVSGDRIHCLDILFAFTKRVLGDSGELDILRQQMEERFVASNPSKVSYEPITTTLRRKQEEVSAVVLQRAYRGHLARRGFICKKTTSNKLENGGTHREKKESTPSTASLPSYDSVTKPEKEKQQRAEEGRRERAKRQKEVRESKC

| Structure (SMILES) | IC50 (NaV1.6 [1]) [µM] | IC50 (NaV1.6 [2]) [µM] | IC50 (NaV1.5 [3]; [7]) [µM] | IC50 (NaV1.5 [4]) [µM] | IC50 (NaV1.1 [5]) [µM] | IC50 (NaV1.1 [6]) [µM] | IC50 (NaV1.5 [3]) [µM] |
| --- | --- | --- | --- | --- | --- | --- | --- |
| C[C@H](Nc1cc(F)c(S(=O)(=O)Nc2nccs2)cc1Cl)c1ccccc1F [Example 45, (S)-5-chloro-2-fluoro-4-((1-(2-fluorophenyl)ethyl)amino)-N-(thiazol-2-yl)benzenesulfonamide] | 0.108 | 0.013 | 6.26 | 5.15 | 1.18 | 0.539 |  |
| CCC(Nc1ccc(S(=O)(=O)Nc2ncns2)cc1Cl)c1ccccc1 (centres unmarked) [Example 139, 3-chloro-4-(1-phenylpropylamino)-N-(1,2,4-thiadiazol-5-yl)benzenesulfonamide] | 0.107 | 0.038 |  | ≥ 30 | 1.29 |  | 12.9 |
| O=S(=O)(Nc1cscn1)c1ccc(NCc2c(F)cccc2CN2CCC2)c(Cl)c1F [Example 192, 4-((2-(azetidin-1-ylmethyl)-6-fluorobenzyl)amino)-3-chloro-2-fluoro-N-(thiazol-4-yl)benzenesulfonamide formate] | 0.072 | 0.015 | 8.51 |  | 16.2 | 10 |  |
| O=S(=O)(Nc1cccc(F)n1)c1cc(Cl)c(NCc2cccc3ccncc23)cc1F [Example 62, 5-chloro-2-fluoro-N-(6-fluoropyridin-2-yl)-4-((isoquinolin-8-ylmethyl)amino)benzenesulfonamide] | 0.138 | 0.052 | 30 |  | 17.3 | 3.1 |  |
| C[C@H](Nc1cc(F)c(S(=O)(=O)Nc2nccs2)cc1Cl)c1cccc(F)c1 [Example 49, (S)-5-chloro-2-fluoro-4-((1-(3-fluorophenyl)ethyl)amino)-N-(thiazol-2-yl)benzenesulfonamide] | 0.232 | 0.019 | 4.75 |  | 0.888 | 0.26 |  |
| C[C@H](Nc1cc(F)c(S(=O)(=O)Nc2nccs2)cc1F)c1ccccc1F [Example 25, (S)-2,5-difluoro-4-((1-(2-fluorophenyl)ethyl)amino)-N-(thiazol-2-yl)benzenesulfonamide] | 0.175 | 0.057 | 10.3 |  | 1.87 | 2.52 |  |
| O=S(=O)(Nc1cccnn1)c1c(F)cc(NCc2c(F)cccc2CN2CCC2)cc1F [Example 333, 4-((2-(azetidin-1-ylmethyl)-6-fluorobenzyl)amino)-2,6-difluoro-N-(pyridazin-3-yl)benzenesulfonamide formate] | 0.257 | 0.186 | 30 |  | 30 | 10 |  |
| C[C@H](Nc1cc(F)c(S(=O)(=O)Nc2nccs2)cc1Cl)c1cc(Cl)ccc1F [Example 8, (S)-5-chloro-4-((1-(5-chloro-2-fluorophenyl)ethyl)amino)-2-fluoro-N-(thiazol-2-yl)benzenesulfonamide] | 0.137 | 0.01 | 5.37 |  | 1.63 | 0.42 |  |
| Cc1cc(S(=O)(=O)Nc2ccncn2)c(F)cc1N[C@@H](C)c1cc(Cl)ccc1F [Example 275, (S)-4-((1-(5-chloro-2-fluorophenyl)ethyl)amino)-2-fluoro-5-methyl-N-(pyrimidin-4-yl)benzenesulfonamide] | 0.174 | 0.025 | 30 |  | 5.33 | 4.85 |  |
| O=S(=O)(Nc1nccs1)c1cc(Cl)c(OCc2cccc3ccncc23)cc1F [Example 11, 5-chloro-2-fluoro-4-(isoquinolin-8-ylmethoxy)-N-(thiazol-2-yl)benzenesulfonamide] | 0.255 | 0.034 | 30 |  | 30 | 10 |  |
| C[C@H](Nc1cc(F)c(S(=O)(=O)Nc2nccs2)cc1Cl)c1ccccc1Cl [Example 78, (S)-5-chloro-4-((1-(2-chlorophenyl)ethyl)amino)-2-fluoro-N-(thiazol-2-yl)benzenesulfonamide] | 0.234 | 0.015 | 7.01 |  | 4.17 | 3.1 |  |
| O=S(=O)(Nc1cscn1)c1cc(Cl)c(NCc2c(F)ccc(F)c2CO)cc1F [Example 293, 5-Chloro-4-((3,6-difluoro-2-(hydroxymethyl)benzyl)amino)-2-fluoro-N-(thiazol-4-yl)benzenesulfonamide] | 0.426 | 0.202 | 30 |  | 12.7 | 10 |  |
| O=S(=O)(Nc1nccs1)c1cc(Cl)c(N[C@H](CN2CCC2)c2ccccc2)cc1F [Example 67, (S)-4-((2-(azetidin-1-yl)-1-phenylethyl)amino)-5-chloro-2-fluoro-N-(thiazol-2-yl)benzenesulfonamide 2,2,2-trifluoroacetate] | 0.426 | 0.119 | 30 |  | 10.6 | 10 |  |
| C[C@H](Nc1ccc(S(=O)(=O)Nc2nccs2)c(F)c1Cl)c1ccccc1F [Example 9, (S)-3-chloro-2-fluoro-4-((1-(2-fluorophenyl)ethyl)amino)-N-(thiazol-2-yl)benzenesulfonamide] | 0.181 | 0.026 | 4.22 |  | 2.36 | 4.33 |  |
| CC[C@H](Nc1cc(F)c(S(=O)(=O)Nc2cscn2)cc1Cl)c1ccccc1 [Example 89, (S)-5-chloro-2-fluoro-4-((1-phenylpropyl)amino)-N-(thiazol-4-yl)benzenesulfonamide] | 0.948 | 0.239 | 9.09 |  | 3.85 | 10 |  |
| C[C@H](Nc1cc(F)c(S(=O)(=O)Nc2cccc(F)n2)cc1Cl)c1ccccc1F [Example 22, (S)-5-chloro-2-fluoro-4-((1-(2-fluorophenyl)ethyl)amino)-N-(6-fluoropyridin-2-yl)benzenesulfonamide] | 1.3 | 0.259 | 4.86 |  | 4.29 | 9 |  |
| C[C@H](Oc1cc(F)c(S(=O)(=O)Nc2cscn2)cc1Cl)c1ccccc1F [Example 101, (S)-5-chloro-2-fluoro-4-(1-(2-fluorophenyl)ethoxy)-N-(thiazol-4-yl)benzenesulfonamide] | 0.814 | 0.462 | 4.66 |  | 9.57 | 10 |  |
| CCC(Nc1cc(F)c(S(=O)(=O)Nc2nccs2)cc1Cl)c1ccccc1 (centres unmarked) [Example 141, 5-chloro-2-fluoro-4-(1-phenylpropylamino)-N-(thiazol-2-yl)benzenesulfonamide] | 0.479 | 0.031 |  |  | 3.33 | 0.277 | 21 |
| CN1CC(Oc2cccc(F)c2CNc2cc(F)c(S(=O)(=O)Nc3cscn3)c(F)c2)C1 [Example 326, 2,6-difluoro-4-((2-fluoro-6-((1-methylazetidin-3-yl)oxy)benzyl)amino)-N-(thiazol-4-yl)benzenesulfonamide formate] | 0.125 | 0.09 | 12.7 |  | 7.86 | 10 |  |
| O=S(=O)(Nc1cscn1)c1cc(Cl)c(NC2(c3cc(F)ccc3F)CC2)cc1F [Example 225, 5-chloro-4-((1-(2,5-difluorophenyl)cyclopropyl)amino)-2-fluoro-N-(thiazol-4-yl)benzenesulfonamide] | 2 | 0.742 | 4.47 |  | 9.82 | 10 |  |
| CC(C)CC(Nc1cc(F)c(S(=O)(=O)Nc2nccs2)cc1Cl)c1ccccc1 (centres unmarked) [Example 143, 5-chloro-2-fluoro-4-(3-methyl-1-phenylbutylamino)-N-(thiazol-2-yl)benzenesulfonamide] | 0.528 | 0.027 |  |  | 2.49 | 0.159 | 7.01 |
| CN(C)C[C@@H](Nc1cc(F)c(S(=O)(=O)Nc2nccs2)cc1Cl)c1ccccc1 [Example 64, (S)-5-chloro-4-((2-(dimethylamino)-1-phenylethyl)amino)-2-fluoro-N-(thiazol-2-yl)benzenesulfonamide 2,2,2-trifluoroacetate] | 0.197 | 0.085 | 30 |  | 14.5 | 10 |  |
| C[C@H](Oc1ccc(S(=O)(=O)Nc2ncns2)cc1Cl)c1ccccc1 [Example 88, (S)-3-chloro-4-(1-phenylethoxy)-N-(1,2,4-thiadiazol-5-yl)benzenesulfonamide] | 1.04 | 0.184 | 18.2 |  | 30 | 10 |  |
| CC(Cc1cccnc1)Nc1cc(F)c(S(=O)(=O)Nc2nccs2)cc1Cl (centres unmarked) [Example 56, 5-chloro-2-fluoro-4-((1-(pyridin-3-yl)propan-2-yl)amino)-N-(thiazol-2-yl)benzenesulfonamide] | 0.949 | 0.292 | 30 |  | 4.03 | 1.42 |  |
| Cc1c(NCc2c(F)cccc2CN2CC(F)C2)ccc(S(=O)(=O)Nc2cscn2)c1F [Example 130, 2-fluoro-4-((2-fluoro-6-((3-fluoroazetidin-1-yl)methyl)benzyl)amino)-3-methyl-N-(thiazol-4-yl)benzenesulfonamide] | 0.307 | 0.1 | 17.7 |  | 11.7 | 10 |  |
| O=S(=O)(Nc1cscn1)c1c(F)cc(NCc2c(Cl)cccc2CN2CCC2)cc1F [Example 290, 4-((2-(azetidin-1-ylmethyl)-6-chlorobenzyl)amino)-2,6-difluoro-N-(thiazol-4-yl)benzenesulfonamide 2,2,2-trifluoroacetate] | 0.101 | 0.011 | 25.1 |  | 6.02 | 10 |  |

From patent US11174268B2, “Benzenesulfonamide compouds and their use as therapeutic agents” (Xenon Pharmaceuticals Inc., priority 2016, dated 2021)
